Measurements reported in patent US9265773B2, “Tetracyclic heterocycle compounds and methods of use thereof for the treatment of viral diseases” (priority 2011, dated 2016).
pIC50: −log10 of the molar value.

How the values were obtained:
HCV replicon genotype 1a = assay: microbe, parasite or virus in culture; format: cell-based; settings: genotype 1a replicon cells, incubated 96 hours, NS3/4A ELISA readout
HCV replicon genotype 1b = assay: microbe, parasite or virus in culture; format: cell-based; settings: genotype 1b replicon cells, incubated 96 hours, NS3/4A ELISA readout

## CNC(=O)c1c(-c2ccc(F)cc2)oc2cc(N(C)S(C)(=O)=O)c(-c3ccc4c(n3)-c3cc5cccc(C#N)c5n3CO4)cc12 [Compound 18]
HCV replicon genotype 1a; Hepatitis C virus, 96 h
  pIC50: 8.04
HCV replicon genotype 1b; Hepatitis C virus, 96 h
  pIC50: 8.27

## CNC(=O)c1c(-c2ccc(F)cc2)oc2cc(N(C)S(C)(=O)=O)c(-c3ncc4c(n3)-c3cc5c(C#N)cccc5n3CO4)cc12 [Compound 26]
HCV replicon genotype 1a; Hepatitis C virus, 96 h
  pIC50: 8.96
HCV replicon genotype 1b; Hepatitis C virus, 96 h
  pIC50: 8.92

## CCOC(=O)CNCC1Oc2ccc(-c3cc4c(C(=O)NC)c(-c5ccc(F)cc5)oc4cc3N(C)S(C)(=O)=O)nc2-c2cc3c(F)cccc3n21 (stereo not drawn) [Compound 119]
HCV replicon genotype 1a; Hepatitis C virus, 96 h
  pIC50: 7.77
HCV replicon genotype 1b; Hepatitis C virus, 96 h
  pIC50: 8.29

## CNC(=O)c1c(-c2ccc(F)cc2)oc2cc(N(C)S(C)(=O)=O)c(-c3ccc4c(n3)-c3cc5cccc(F)c5n3CO4)cc12 [Compound 20]
HCV replicon genotype 1a; Hepatitis C virus, 96 h
  pIC50: 8.17
HCV replicon genotype 1b; Hepatitis C virus, 96 h
  pIC50: 8.16

## CNC(=O)c1c(-c2ccc(F)cc2)oc2cc(N(CC(C)O)S(C)(=O)=O)c(-c3ccc4c(n3)-c3cc5c(F)cccc5n3CO4)cc12 (stereo not drawn) [Compound 203]
HCV replicon genotype 1a
  pIC50: 8.54
HCV replicon genotype 1b
  pIC50: 8.05

## CNC(=O)c1c(-c2ccc(F)cc2)oc2cc(N3CCOC3=O)c(-c3ccc4c(n3)-c3cc5cc(F)ccc5n3CO4)cc12 [Compound 174]
HCV replicon genotype 1a; Hepatitis C virus, 96 h
  pIC50: 7.89
HCV replicon genotype 1b; Hepatitis C virus, 96 h
  pIC50: 8.33

## CNC(=O)c1c(-c2ccc(F)cc2)oc2cc(N(CC(F)F)S(C)(=O)=O)c(-c3ncc4c(n3)-c3cc5ccccc5n3CO4)cc12 [Compound 198]
HCV replicon genotype 1a; Hepatitis C virus, 96 h
  pIC50: 8.70
HCV replicon genotype 1b; Hepatitis C virus, 96 h
  pIC50: 8.25

## CNC(=O)c1c(-c2ccc(F)cc2)oc2cc(N(C)S(C)(=O)=O)c(-c3ccc4c(n3)-c3cc5ccc(C#N)cc5n3CO4)cc12 [Compound 22]
HCV replicon genotype 1a; Hepatitis C virus, 96 h
  pIC50: 8.46
HCV replicon genotype 1b; Hepatitis C virus, 96 h
  pIC50: 8.72

## CNC(=O)c1c(-c2ccc(F)cc2)oc2cc(N(Cc3ccc(B(O)O)cc3)S(C)(=O)=O)c(-c3ccc4c(n3)-c3cc5c(F)cccc5n3CO4)cc12 [Compound 205, (4-((N-(5-(11-fluoro-6H-pyrido[2′,3′:5,6][1,3]oxazino[3,4-a]indol-2-yl)-2-(4-fluorophenyl)-3-(methylcarbamoyl)benzofuran-6-yl)methylsulfonamido)methyl)phenyl) boronic acid]
HCV replicon genotype 1a; Hepatitis C virus, 96 h
  pIC50: 7.85
HCV replicon genotype 1b; Hepatitis C virus, 96 h
  pIC50: 7.82

## CNC(=O)c1c(-c2ccc(F)cc2)oc2cc(N(C)S(C)(=O)=O)c(-c3ccc4c(c3)-c3[nH]c5ccccc5c3C3(CCCC3)O4)cc12 [Compound 65]
HCV replicon genotype 1a; Hepatitis C virus, 96 h
  pIC50: 7.96
HCV replicon genotype 1b; Hepatitis C virus, 96 h
  pIC50: 7.72

## Cc1n[nH]c(-c2c(-c3ccc(F)cc3)oc3cc(N(C)S(C)(=O)=O)c(-c4ccc5c(n4)-c4cc6c(F)cccc6n4CO5)cc23)n1 [Compound 161, N-(5-(11-fluoro-6H-pyrido[2′,3′:5,6][1,3]oxazino[3,4-a]indol-2-yl)-2-(4-fluorophenyl)-3-(3-methyl-1H-1,2,4-triazol-5-yl)benzofuran-6-yl)-N-methylmethanesulfonamide]
HCV replicon genotype 1a; Hepatitis C virus, 96 h
  pIC50: 7.49
HCV replicon genotype 1b; Hepatitis C virus, 96 h
  pIC50: 7.27

## CNC(=O)c1c(-c2ccc(F)cc2)oc2cc(N(C)S(C)(=O)=O)c(-c3cnc4c(c3)-c3cc5ccccc5n3CO4)cc12 [Compound 24]
HCV replicon genotype 1a; Hepatitis C virus, 96 h
  pIC50: 8.52
HCV replicon genotype 1b; Hepatitis C virus, 96 h
  pIC50: 8.29

## CNC(=O)c1c(-c2ccc(F)cc2)oc2cc(N(C)S(C)(=O)=O)c(-c3ccc4c(n3)-c3c(F)c5ccccc5n3CO4)cc12 [Compound 58, 5-(12-fluoro-6H-pyrido[2′,3′:5,6][1,3]oxazino[3,4-a]indol-2-yl)-2-(4-fluorophenyl)-N-methyl-6-(N-methylmethylsulfonamido)benzofuran-3-carboxamide]
HCV replicon genotype 1a; Hepatitis C virus, 96 h
  pIC50: 7.89
HCV replicon genotype 1b; Hepatitis C virus, 96 h
  pIC50: 8.06

## CN(c1cc2oc(-c3ccc(F)cc3)c(C(N)=O)c2cc1-c1ccc2c(n1)-c1cc3c(F)cccc3n1CO2)S(C)(=O)=O [Compound 154]
HCV replicon genotype 1a; Hepatitis C virus, 96 h
  pIC50: 8.57
HCV replicon genotype 1b; Hepatitis C virus, 96 h
  pIC50: 8.66

## CNC(=O)c1c(-c2ccc(F)cc2)oc2cc(N(C)S(C)(=O)=O)c(-c3cnc4c(n3)-c3cc5c(F)cccc5n3CO4)cc12 [Compound 25]
HCV replicon genotype 1a; Hepatitis C virus, 96 h
  pIC50: 9.00
HCV replicon genotype 1b; Hepatitis C virus, 96 h
  pIC50: 8.74

## CNC(=O)c1c(-c2ccc(F)cc2)oc2cc(N(CCC3(O)CC3)S(C)(=O)=O)c(-c3ccc4c(n3)-c3cc5c(F)cccc5n3CO4)cc12 [Compound 204]
HCV replicon genotype 1a; Hepatitis C virus, 96 h
  pIC50: 8.09
HCV replicon genotype 1b; Hepatitis C virus, 96 h
  pIC50: 7.72

## CNC(=O)c1c(-c2ccc(F)cc2)oc2cc(N(C)S(C)(=O)=O)c(-c3ccc4c(n3)-c3[nH]c5ncccc5c3CO4)cc12 [Compound 52, 5-(6,11-dihydropyrido[2″,3″:5′,6′]pyrano[3′,4′:4,5]pyrrolo[2,3-b]pyridin-2-yl)-2-(4-fluorophenyl)-N-methyl-6-[methyl(methylsulfonyl)amino]-1-benzofuran-3-carboxamide]
HCV replicon genotype 1a; Hepatitis C virus, 96 h
  pIC50: 8.77
HCV replicon genotype 1b; Hepatitis C virus, 96 h
  pIC50: 8.57

## CNC(=O)c1c(-c2ccc(F)cc2)oc2cc(N(C)S(C)(=O)=O)c(-c3ccc4c(c3)-c3cc5c(F)cccc5n3CO4)cc12 [Compound 43, 5-(11-fluoro-6H-benzo[5,6][1,3]oxazino[3,4-a]indol-2-yl)-2-(4-fluorophenyl)-N-methyl-6-(N-methylmethylsulfonamido)benzofuran-3-carboxamide]
HCV replicon genotype 1a; Hepatitis C virus, 96 h
  pIC50: 8.62
HCV replicon genotype 1b; Hepatitis C virus, 96 h
  pIC50: 8.41

## CNC(=O)c1c(-c2ccc(F)cc2)oc2cc(N(C)S(C)(=O)=O)c(-c3ccc4c(n3)-c3cc5c(F)cccc5n3C(CNC(=O)[C@@H](NC(=O)OC)C(C)C)O4)cc12 (stereo partly drawn) [Compound 127]
HCV replicon genotype 1a
  pIC50: 8.46
HCV replicon genotype 1b
  pIC50: 8.80

## CNC(=O)c1c(-c2ccc(F)cc2)oc2cc(N(C)S(C)(=O)=O)c(-c3ccc4c(c3)-c3cc5ccccc5n3C(C3CC3)O4)cc12 (stereo not drawn) [Compound 132]
HCV replicon genotype 1a; Hepatitis C virus, 96 h
  pIC50: 8.32
HCV replicon genotype 1b; Hepatitis C virus, 96 h
  pIC50: 8.10

## CNC(=O)c1c(-c2ccc(F)cc2)oc2cc(N(C)S(C)(=O)=O)c(-c3ccc4oc(=O)n5c6ccccc6cc5c4c3)cc12 [Compound 53, 2-(4-fluorophenyl)-N-methyl-6-(N-methylmethylsulfonamido)-5-(6-oxo-6H-benzo[5,6][1,3]oxazino[3,4-a]indol-2-yl)benzofuran-3-carboxamide]
HCV replicon genotype 1a; Hepatitis C virus, 96 h
  pIC50: 8.10
HCV replicon genotype 1b; Hepatitis C virus, 96 h
  pIC50: 8.10

## CNC(=O)c1c(-c2ccc(F)cc2)oc2cc(N(C)S(C)(=O)=O)c(-c3ccc4c(n3)-c3nc5cccnc5n3CO4)cc12 [Compound 137]
HCV replicon genotype 1a; Hepatitis C virus, 96 h
  pIC50: 7.36
HCV replicon genotype 1b; Hepatitis C virus, 96 h
  pIC50: 8.10

## CNC(=O)c1c(-c2ccc(F)cc2)oc2cc(N(C)S(C)(=O)=O)c(-c3ccc4c(n3)-c3cc5c(F)cccc5n3CO4)cc12 [Compound 2, 5-(11-fluoro-6H-pyrido[2′,3′:5,6][1,3]oxazino[3,4-a]indol-2-yl)-2-(4-fluorophenyl)-N-methyl-6-(N-methylmethylsulfonamido)benzofuran-3-carboxamide]
HCV replicon genotype 1a; Hepatitis C virus, 96 h
  pIC50: 8.80
HCV replicon genotype 1b; Hepatitis C virus, 96 h
  pIC50: 8.57

## CNC(=O)c1c(-c2ccc(F)cc2)oc2cc(C(N)=O)c(-c3ccc4c(n3)-c3cc5c(F)cccc5n3CO4)cc12 [Compound 183, 5-(11-fluoro-6H-pyrido[2′,3′:5,6][1,3]oxazino[3,4-a]indol-2-yl)-2-(4-fluorophenyl)-N3-methylbenzofuran-3,6-dicarboxamide]
HCV replicon genotype 1a; Hepatitis C virus, 96 h
  pIC50: 8.70
HCV replicon genotype 1b; Hepatitis C virus, 96 h
  pIC50: 8.15

## CNC(=O)c1c(-c2ccc(F)cc2)oc2cc(N(C)S(C)(=O)=O)c(-c3nc4c(cc3F)OCn3c-4cc4c(F)cccc43)cc12 [Compound 27]
HCV replicon genotype 1a; Hepatitis C virus, 96 h
  pIC50: 8.54
HCV replicon genotype 1b; Hepatitis C virus, 96 h
  pIC50: 8.21

## CNC(=O)c1c(-c2ccc(F)cc2)oc2cc(N3CCCC3=O)c(-c3ncc4c(n3)-c3cc5c(F)cccc5n3CO4)cc12 [Compound 170]
HCV replicon genotype 1a; Hepatitis C virus, 96 h
  pIC50: 7.27
HCV replicon genotype 1b; Hepatitis C virus, 96 h
  pIC50: 7.89

## CONC(=O)c1c(-c2ccc(F)cc2)oc2cc(N(C)S(C)(=O)=O)c(-c3ccc4c(n3)-c3cc5c(F)cccc5n3CO4)cc12 [Compound 153]
HCV replicon genotype 1a; Hepatitis C virus, 96 h
  pIC50: 8.60
HCV replicon genotype 1b; Hepatitis C virus, 96 h
  pIC50: 8.31

## CNC(=O)c1c(-c2ccc(F)cc2)oc2cc(N(C)S(C)(=O)=O)c(-c3nc4c(cc3OC)OCn3c-4cc4c(F)cccc43)cc12 [Compound 36]
HCV replicon genotype 1a; Hepatitis C virus, 96 h
  pIC50: 8.77
HCV replicon genotype 1b; Hepatitis C virus, 96 h
  pIC50: 8.15

## CNC(=O)c1c(-c2ccc(F)cc2)oc2cc(N3CCCC3=O)c(-c3ccc4c(n3)-c3cc5c(F)cccc5n3CO4)cc12 [Compound 168, 5-(11-fluoro-6H-pyrido[2′,3′:5,6][1,3]oxazino[3,4-a]indol-2-yl)-2-(4-fluorophenyl)-N-methyl-6-(2-oxopyrrolidin-1-yl)benzofuran-3-carboxamide]
HCV replicon genotype 1a; Hepatitis C virus, 96 h
  pIC50: 8.48
HCV replicon genotype 1b; Hepatitis C virus, 96 h
  pIC50: 8.55

## CNC(=O)c1c(-c2ccc(F)cc2)oc2cc(N(C)S(C)(=O)=O)c(-c3ccc4c(n3)-c3cc5c(F)cccc5n3C(CNC(=O)[C@@H](NC(=O)OC)C(C)C)O4)cc12 (stereo partly drawn) [Compound 125]
HCV replicon genotype 1a; Hepatitis C virus, 96 h
  pIC50: 8.29
HCV replicon genotype 1b
  pIC50: 8.47

## CNC(=O)c1c(-c2ccc(F)cc2)oc2cc(N(C)S(C)(=O)=O)c(-c3ccc4c(n3)-c3cc5c(Cl)cccc5n3CO4)cc12 [Compound 14]
HCV replicon genotype 1a; Hepatitis C virus, 96 h
  pIC50: 8.52
HCV replicon genotype 1b; Hepatitis C virus, 96 h
  pIC50: 8.21

## CNC(=O)c1c(-c2ccc(F)cc2)oc2cc(N(C)S(C)(=O)=O)c(-c3ccc4c(n3)-c3cc5c(F)cccc5n3C(CNC(=O)[C@@H]3CCCN3C(=O)OC)O4)cc12 (stereo partly drawn) [Compound 124, (2S)-methyl 2-(((11-fluoro-2-(2-(4-fluorophenyl)-3-(methylcarbamoyl)-6-(N-methylmethylsulfonamido)benzofuran-5-yl)-6H-pyrido[2′,3′:5,6][1,3]oxazino[3,4-a]indol-6-yl)methyl)carbamoyl)pyrrolidine-1-carboxylate]
HCV replicon genotype 1a
  pIC50: 7.72
HCV replicon genotype 1b
  pIC50: 8.35

## CNC(=O)c1c(-c2ccc(F)cc2)oc2cc(N3CCC3=O)c(-c3ccc4c(n3)-c3cc5c(F)cccc5n3CO4)cc12 [Compound 176]
HCV replicon genotype 1a; Hepatitis C virus, 96 h
  pIC50: 8.10
HCV replicon genotype 1b; Hepatitis C virus, 96 h
  pIC50: 8.06

## CNC(=O)c1c(-c2ccc(F)cc2)oc2cc(N(C)S(C)(=O)=O)c(-c3cnc4c(c3)-c3nc5c(n3CO4)CCCC5)cc12 [Compound 141, 2-(4-fluorophenyl)-N-methyl-6-(N-methylmethylsulfonamido)-5-(8,9,10,11-tetrahydro-6H-benzo[4,5]imidazo[1,2-c]pyrido[3,2-e][1,3]oxazin-2-yl)benzofuran-3-carboxamide]
HCV replicon genotype 1a; Hepatitis C virus, 96 h
  pIC50: 8.62
HCV replicon genotype 1b; Hepatitis C virus, 96 h
  pIC50: 8.62

## CNC(=O)c1c(-c2ccc(F)cc2)oc2cc(N(CCF)S(C)(=O)=O)c(-c3ccc4c(n3)-c3cc5c(C#N)cccc5n3CO4)cc12 [Compound 191]
HCV replicon genotype 1a; Hepatitis C virus, 96 h
  pIC50: 8.77
HCV replicon genotype 1b; Hepatitis C virus, 96 h
  pIC50: 8.66

## CNC(=O)c1c(-c2ccc(F)cc2)oc2cc(N(C)S(C)(=O)=O)c(-c3ccc4c(n3)-c3cc5c(F)cccc5n3C(CO)(CO)O4)cc12 [Compound 94]
HCV replicon genotype 1a; Hepatitis C virus, 96 h
  pIC50: 8.64
HCV replicon genotype 1b; Hepatitis C virus, 96 h
  pIC50: 8.25
